Measurements: PubChem BioAssay AID1259353
pEC50: −log10 of the molar value.

Test system: Trichuris muris adults ex vivo, motility imaging, 24 h
Assay: whipworm adult movement reduction ex vivo – whole organism, INVAPP motility imaging, 24 h, dose response (AID 1259353)

pEC50	Structure (SMILES)
4.59	COCCNc1nc(NCCOc2ccccc2Cl)c2sccc2n1
4.15	COc1ccccc1CNc1nc(NCCOc2ccccc2Cl)c2sccc2n1
4.55	CNc1nc(NCCOc2ccccc2)c2sccc2n1
4.36	CNc1nc(NCCOc2ccccc2Cl)c2sccc2n1
